Measurements: PMC10967572, “Induction of Oxidative Stress and Ferroptosis in Triple-Negative Breast Cancer Cells by Niclosamide via Blockade of the Function and Expression of SLC38A5 and SLC7A11” (Antioxidants, 2024)
Where a name gives a salt, the structure may show the parent alone. Residues, ends and D or L forms follow the SMILES beside them. *: point of attachment. Cbz = O=C(OCc1ccccc1)*; CH2F = FC*

Columns and labels:
[1] = test system: Nrf2 target genes (SLC7A11, HO-1, GCLC, GCLM); experiment: qRT-PCR of Nrf2 target genes in TNBC cells; type: cell-based, human; conditions: MB231, TXBR100 and MB453, Se-Met 1 mM, 16 h
Description: (§1) Total RNA was extracted from cells using TRIzol Reagent (ThermoFisher Scientific, Waltham, MA, USA) and the RNA was reverse-transcribed using a high-capacity cDNA reverse transcription kit (ThermoFisher Scientific, Waltham, MA, USA) according to the manufacturer’s protocol. Quantitative RT-PCR was performed with Takara Taq Hot Start Version (TaKaRa Biotechnology, Shiga, Japan) or Power SYBR Green PCR master mix (Bio-Rad, Hercules, CA, USA). Primer sequences are shown in Supplemental Table S1. The relative mRNA expression was determined by the 2^−∆∆Ct method. Additionally, 18S was used as a housekeeping gene for normalization.

Nrf2 = Nrf2 expression and subcellular localization (immunostaining, Western blot, qRT-PCR) in TNBC cells; type: cell-based, human; conditions: MB231 and TXBR100; 24 h; Se-Met 250 μM and 1 mM, monomethylfumarate 0.1 mM; immunostaining and Western blot
Description: as §1
Cells and tumor tissues were lysed in Pierce™ RIPA buffer (ThermoFisher Scientific, Waltham, MA, USA) supplemented with Halt™ Protease and Phosphatase Inhibitor Cocktail (ThermoFisher Scientific, Waltham, MA, USA). Homogenates were centrifuged, and supernatants were used for protein measurement via Pierce™ BCA Protein Assay Kit (ThermoFisher Scientific, Waltham, MA, USA). […] Western blot samples were prepared in Laemmli sample buffer (Bio-Rad Laboratories, Hercules, CA, USA). They were loaded onto a SDS–PAGE gel and transferred onto a PVDF membrane (Bio-Rad Laboratories, Hercules, CA, USA). The membrane was blocked and antibodies diluted in 5% nonfat dry milk (Bio-Rad Laboratories, Hercules, CA, USA) or in 5% bovine serum albumin (Irvine Scientific, Santa Ana, CA, USA) were used. Protein bands were visualized using Pierce™ ECL Western Blotting Substrate (ThermoFisher Scientific, Waltham, MA, USA) and developed on the autoradiography film (Santa Cruz, Dallas, TX, USA). Primary antibodies were purchased either from Cell Signaling (Danvers, MA, USA) [anti-GPX4 (#52455), anti-FTH (#4393), anti-HSP60 (#12165), anti-phospho-p70S6K (#9205), anti-p70S6K (#2708)] or from Abcam (Waltham, MA, USA) [Nrf2 (#ab62352)]. Secondary antibody Horseradish peroxidase-conjugated goat anti-rabbit IgG (#1706515) was purchased from Bio-Rad Laboratories (Hercules, CA, USA). For quantification of protein levels by the densitometric analysis, the experiment was carried out in triplicate and the data were collected from the resultant three Western blots.

SLC7A11 = SLC7A11 transport activity (glutamate uptake) after treatment of cells; type: cell-based, human; conditions: MB231, TXBR100 and MB453 cells treated before uptake
Description: The transport activity of SLC7A11 was calculated by subtracting the diffusional component from total uptake. […] Confluent cultures were used for uptake measurements.

SLC38A5 [2] = biological target: SLC38A5 (Homo sapiens, UniProt Q8WUX1); experiment: Inhibition of SLC38A5-mediated [3H]-serine uptake in TNBC cells; conditions: IC50 for the inhibition of SLC38A5-mediated serine uptake, serine 5 μM, LiCl buffer pH 8.5 with 5 mM tryptophan
[3] = test system: TNBC cells (MB231 and TXBR100); experiment: MTT cell proliferation / viability assay; type: cell-based, human; conditions: niclosamide 1 μM with inhibitor 10 μM (hydroxychloroquine 25 μM), 48 h
Description: Cells were seeded in 96-well plates; after 24 h, niclosamide treatment was initiated. Cells were then cultured for 72 h with fresh medium containing freshly prepared niclosamide supplied every 24 h. Cells were washed with phosphate-buffered saline twice followed by MTT reagent (ATCC). Treatment and lysis of the cells were done as per the manufacturer’s instructions. Absorbance of the lysate was measured at 550 nm. Cell viability assay with various cell-death inhibitors was also performed as described above. Cells were treated with niclosamide (1 µM) along with cell death inhibitors (10 µM), except hydroxychloroquine (25 µM) for 48 h.

[4] = test system: MB231 cells and TXBR100 cells; experiment: Lipid radical (ferroptosis) assay with LipiRadical Green; type: cell-based, human; conditions: inhibitor 10 μM with niclosamide 5 μM; MB231 and TXBR100
Description: Lipid radical (ferroptosis) assay and iron assay were performed as follows. Cells were cultured on a 25 mm glass coverslip until they reached 60–70% confluency (~48 h). At the time of the experiment, cells were washed with NaCl buffer, pH 7.5 and then incubated with 1 µM of LipiRadical Green (a lipid radical detection reagent, FDV-0042, Funakoshi, Tokyo, Japan) or Ferro-orange (an iron detection probe, F374, Dojindo, Rockville, MD, USA) in NaCl buffer, pH 7.5 for 20 min and then washed with NaCl buffer, pH 7.5. To analyze the effects of modifiers of iron levels and lipid peroxidation, the cells were co-treated with the modifiers and the respective fluorescent probe for 20 min and then washed. The glass coverslip containing the cells was then probed under an inverted microscope. The fluorescence imaging was captured using a Nikon T1-E microscope with A1 confocal super-resolution module (Nikon, Dallas, TX, USA), with a 60× objective, at 488 nm. The images represent a maximum projection intensity derived from a Z-stack. The fluorescence quantification was performed by measuring the corrected total cell fluorescence (CTCF) using Image J (version: 2.14.0/1.54f) and the following formula; CTCF = (integrated density) − (area of cell of interest) × (mean fluorescence of background).

[5] = test system: MB231 cells and TXBR100 cells; experiment: Cellular glutathione levels (GSH-Glo assay); type: cell-based, human; conditions: Homo sapiens; buthionine sulfoximine 100 μM; both cell lines (MB231, TXBR100)
Description: Control and niclosamide-treated cells were used for measurement of cellular glutathione levels as instructed in the manufacturer’s protocol (GSH-Glo assay, Promega, Madison, WI, USA). The levels of malondialdehyde were measured using lipid peroxidation kit [Lipid Peroxidation (MDA) Assay Kit (MAK085), Millipore-sigma, St. Louis, MO, USA].

SLC38A5 [6] = test system: SLC38A5; design: method as in PMID 11243884, PMID 37812701; conditions: cited from earlier work

Chain of SLC38A5 (Homo sapiens, UniProt Q8WUX1) (Q8WUX1 whole entry): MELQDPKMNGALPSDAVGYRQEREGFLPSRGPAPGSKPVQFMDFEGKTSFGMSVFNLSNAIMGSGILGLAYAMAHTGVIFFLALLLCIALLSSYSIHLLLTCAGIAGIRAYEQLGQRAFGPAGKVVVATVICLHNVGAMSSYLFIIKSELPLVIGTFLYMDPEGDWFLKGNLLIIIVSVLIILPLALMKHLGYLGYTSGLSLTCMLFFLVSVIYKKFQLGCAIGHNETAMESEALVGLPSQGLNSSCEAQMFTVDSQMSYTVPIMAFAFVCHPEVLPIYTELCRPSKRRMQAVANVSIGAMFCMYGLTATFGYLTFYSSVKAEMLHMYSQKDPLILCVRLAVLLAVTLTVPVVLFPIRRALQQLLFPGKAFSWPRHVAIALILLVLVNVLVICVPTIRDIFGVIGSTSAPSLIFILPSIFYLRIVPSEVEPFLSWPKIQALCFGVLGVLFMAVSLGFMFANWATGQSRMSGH

Compound | cellular levels and nuclear localization of Nrf2 (Nrf2) | transport activity of SLC7A11 (glutamate uptake) in treated cells (SLC7A11) | effect of cell death inhibitor on cell viability in the presence of niclosamide [3] | effect of cell death inhibitor on niclosamide-induced increase in lipid radical fluorescence [4] | further results
C[Se]CC[C@H](N)C(=O)O [Se-Met, seleno-methionine] | increased | increased substantially | – | – | mRNA levels for Nrf2 targets SLC7A11, HO-1, GCLC and GCLM [1]: significant increase; IC50 (SLC38A5 [2]; MB231 cells): 680 µM; IC50 (SLC38A5 [2]; TXBR100 cells): 453 µM
COC(=O)C[C@H](NC(=O)[C@H](C)NC(=O)[C@@H](NC(=O)OCc1ccccc1)C(C)C)C(=O)CF [ZVAD-fmk] (Cbz-Val-Ala-Asp(OMe)-CH2F) | – | – | failed to promote cell viability | did not have any effect | –
CCCCS(=N)(=O)CCC(N)C(=O)O (centres unmarked) [buthionine sulfoximine] | – | – | – | – | inhibition at 100 µM [5]: ~90%
CCOC(=O)c1ccc(NC2CCCCC2)c(N)c1 [ferrostatin 1, ferrostatin-1] | – | – | improved cell viability | blocked this increase | –
CCN(CCO)CCCC(C)Nc1ccnc2cc(Cl)ccc12 (centres unmarked) [hydroxychloroquine] | – | – | failed to promote cell viability | – | –
CSCC[C@H](N)C(=O)O [methionine] | did not have any noticeable effect | did not have any effect | – | – | IC50 (SLC38A5 [2]; MB231 cells): 518 µM; IC50 (SLC38A5 [2]; TXBR100 cells): 316 µM
COC(=O)/C=C/C(=O)O [monomethylfumarate, monomethyl fumarate] | increased | stimulatory effect | – | – | –
CN1C(=O)C(Cc2c[nH]c3ccccc23)NC1=S (centres unmarked) [necrostatin, necrostatin-1] | – | – | failed to promote cell viability | did not have any effect | –
N[C@@H](CO)C(=O)O [serine] | – | – | – | – | Kt value for SLC38A5-mediated transport (SLC38A5 [6]): 200 to 1300 µM
